Measured values: patent US20250281453A1, “COMBINATION THERAPIES COMPRISING QTX125” (QUIMATRYX, S.L., priority 2022, published 2025)

Legend:
Assay in all cases: Cell viability, hexosaminidase assay, monotherapy
Format in all cases: cell-based
[1] = tested on: HCT-116 colonic cancer cells
Description: (§1) In brief, HCT-116, MiaPaCa-2 and Panc-1 cells were thawed in high glucose DMEM (Sigma D5796) with 10% heat-inactivated Foetal Calf Serum (FCS) (PAA, A15-101)). Hep-G2 and SK-Hep1 cells were thawed in Minimum Essential Media (MEM) (Sigma M2279) with 1% non-essential amino acids (Sigma M7145), 2 mM Glutamine (Sigma G7513) and 10% FCS. SK-OV-3 cells were thawed in McCoy's 5A medium (Sigma, M8403) with 15% FCS. All cells were passaged by washing once in cation-free dPBS (Sigma, D1408), and incubated for 3 minutes with trypsin ([0.5 μg/ml]/EDTA [0.2 μg/ml] (Sigma, T4174) in dPBS). Passage was completed at 37° C., and cells were transferred to the appropriate media. Prior to seeding at defined cell density, cells were recovered in medium, centrifuged and resuspended for counting.
(§2) To prepare cells for viability assays, cells were transferred into 96 well tissue culture plates (Cultek), and resuspended in 100 µL at the following densities: 10,000 cells/well (Hep-G2 and MiaPaCa-2), 5000 cells/well (Panc-1 and SK-OV-3) or 3000 cells/well (HCT-116). Following 24 hours of incubation, media was removed and replaced with 100 µL media spiked with QTX125 and the test chemotherapeutic agents. Stock solutions for the agents used in this study are shown below in Table 1. Cells were incubated for a further 72 hours before cell viability was assessed using both ALAMAR® and hexosaminidase assays.
(§3) For the hexosaminidase assay, media containing QTX125 and the test chemotherapeutic agents was removed, and cells were washed once with PBS. 60 μL of substrate solution (containing: 7.5 mM p-nitrophenol-N-acetyl-beta-D-glucosamide [Sigma N-9376], 0.1 M sodium citrate, pH 5.0 and 0.25% Triton X-100) was added to each well and cells were incubated at 37° C. for at least 1 hour. Incubating cells in this manner causes the substrate solution to become bright yellow, at which point 90 μL of developer solution (containing 50 mM Glycine pH 10.4 and 5 mM EDTA) was added to each well. Absorbance at 410 nm was recorded using a plate reader.
(§4) A number of appropriate control samples were included. First, absorbance values measured in reagent ‘blank’ wells (containing cell culture medium and colorimetric agent only) were subtracted from ‘test’ sample-containing wells. ‘Blank’ absorbance values were routinely between 5 and 10% of the values recorded in test wells. Absorbance values recorded in test wells were then compared against wells containing (i) cells stimulated with QTX125 only; (ii) cells stimulated with sorafenib, gemcitabine or bortezomib only and/or (iii) unstimulated cells, as appropriate.
(§5) Control values were normalised to 100% and percentage (%) viability was calculated. Data were used to plot log dose-response curves using a sigmoid dose-response (variable slope) equation. EC50 values were obtained using Equation 1, where ‘X’ is the logarithmic concentration; ‘Y’ is the response output and it is assumed that Y starts at bottom of the graph and reaches the top with an overall sigmoid shape.
(§6) Prior to assessing the oncolytic efficacy of QTX125-containing combination therapies, the oncolytic effect of each test agent was assessed in isolation. Dose-response curves were produced by serial dilution (1:1), thereby allowing monotherapy EC50 values to be calculated.
(§7) Chemotherapeutic agents were added to wells at a starting concentration of 100 μM. However, it was quickly determined that it was not possible to use this range for all chemotherapeutic agents tested. An optimization study was therefore completed to identify suitable maximum (‘high’) doses for each agent and in each individual cell line.

[2] = tested on: Hep-G2 hepatic cancer cells
Description: as §1, §2, §3, §4, §5, §6, §7

[3] = tested on: MiaPaCa-2 pancreatic cancer cells
Description: as §1, §2, §3, §4, §5, §6, §7

[4] = tested on: Panc-1 pancreatic cancer cells
Description: as §1, §2, §3, §4, §5, §6, §7

[5] = tested on: SK-OV-3 ovarian cancer cells
Description: as §1, §2, §3, §4, §5, §6, §7

[6] = Homo sapiens, 72 h, read-out: EC50 dose of monotherapy
[7] = 72 hours of high-dose monotherapy (Table 2: QTX125 100, sorafenib 100, gemcitabine 100, bortezomib 1 μM)

- EC50 [1, 6]: 0.43 µM
- EC50 ([2]; Homo sapiens, HepG2, 72 h, read-out: EC50 dose of monotherapy): 3.3 ± 0.4 µM
- EC50 ([3]; Homo sapiens, MIA PaCa-2, 72 h, read-out: EC50 dose of monotherapy): 1.5 ± 0.2 µM
- EC50 [4, 6]: 3.6 ± 0.5 µM
- EC50 [5, 6]: 3.6 ± 0.4 µM
SMILES: O=C(NO)c1ccc(CNC(=O)c2[nH]c(-c3ccc(O)cc3)cc2-c2ccoc2)cc1 [QTX125, 3-(3-Furyl)-N-{4-[(hydroxyamino)carbonyl]benzyl}-5-(4-hydroxyphenyl)-1 Hpyrrole-2-carboxamide]
- percentage (%) cell viabilities ([1]; 72 hours of high-dose monotherapy (Table 2: QTX125 1, sorafenib 100, gemcitabine 10, bortezomib 1 μM)): 7.3%
- percentage (%) cell viabilities ([2]; 72 hours of high-dose monotherapy (Table 2: QTX125 5, sorafenib 100, gemcitabine 100, bortezomib 1 μM)): 2.1%
- reduction of the population of viable cells ([2]; high-dose monotherapy, 72 hours): ~98%
- percentage (%) cell viabilities [3, 7]: 7.3%
- percentage (%) cell viabilities [4, 7]: 3.9%
- percentage (%) cell viabilities ([5]; 72 hours of high-dose monotherapy (Table 2: QTX125 10, sorafenib 100, gemcitabine 10, bortezomib 1 μM)): 5.0%
